# Like-named read-outs stand apart in the source and are kept apart here. Peptide text beside a SMILES is read from it.
# Key:
# E. coli ATCC 25922 [1] = format: cell-based, Escherichia coli
# Protocol: Fresh cultures were used in antimicrobial assay. […] Moreover MBC was evaluated. […] All experiments were conducted in triplicate.
# E. coli ATCC 43827 = format: cell-based, Escherichia coli
# Protocol: Verification of antimicrobial activity of the synthesized analogs was conducted on reference strains of E. coli ATCC 25922 and ATCC 43827 in the first phase of the experimental validation, and S. aureus ATCC 33591, E. coli ATCC 25922, E. coli ATCC 43827, A. baumannii ATCC BAA 1605, P. aeruginosa ATCC 9027 in the second phase.
# All the strains were stored at -80 °C in Roti®-Store cryo vials (Carl Roth GmbH, Germany) and before the tests were transferred into fresh Mueller-Hinton Medium (BioMaxima, Poland) and incubated for 24 h at 37 °C. Fresh cultures were used in antimicrobial assay. The MIC values were evaluated by the broth microdilution method according to Clinical and Laboratory Standards Institute Protocol[86]. […] The experiments were conducted on 96-well microtiter plates, with a final volume of 100 μL. Inoculums densities were adjusted spectrophotometrically (Multiskan™ GO Microplate Spectrophotometer, Thermo Scientific) at the wavelength of 600 nm. The MICs were taken as the lowest drug concentration at which a visible growth of microorganisms was inhibited[87]. Moreover MBC was evaluated. After MIC examination the samples from MIC well and two higher concentrations were seeded on the agar plates. Section with no visible growth of bacterial colonies was reported as the MBC for each strain and compound. All experiments were conducted in triplicate. […]
# erythrocytes = settings: cited from earlier work
# Text: Supplement 41467_2023_36994_MOESM6_ESM.xlsx, sheet "MD calibration" | column: Hemolytic activity (HC50); Comment
# E. coli ATCC 25922 [2] = settings: ref https://dbaasp.org/peptide-card?id=8199; cited from earlier work
# S. aureus ATCC 29212 = settings: ref https://dbaasp.org/peptide-card?id=8199; cited from earlier work
# Text: page 7: Reviewer #2 (Remarks to the Author): The authors present a new method, HydrAMP, for antimicrobial peptide generation. The generative model of HydrAMP is a decoder, which produces a distribution over peptides in order to mimic the synthesis of the antimicrobial peptides in biological experiments. HydrAMP is the first model trained and used to identify active analogs of non-AMP prototypes. During training, they introduce an additional encoder to provide a variational approximation to help optimize the decoder. Their method is based on the conditional VAE model, which provides the foundat ...
# [3] = experimentally confirmed activity, strain not given; ref Supplementary Data 3; cited from earlier work
# Text: 21 (1 picture or pasted object on this page, not shown here)
# E. coli ATCC 25922 [4] = test system: E. coli ATCC 25922; design: method as in DBAASP; settings: origin dbaasp_ecoli; ref DBAASP; cited from earlier work
# [5] = Supplementary Data 5F, analogue generation without additional preselection
# [6] = first experimental round, broth microdilution (CLSI), Mueller-Hinton Broth, 0.5 × 10^5 CFU/mL, 1-[…], 18 h at 37 °C, triplicate
molecule,measurement,setting,value
CC[C@H](C)[C@H](NC(=O)CNC(=O)[C@H](CO)NC(=O)[C@H](CC(C)C)NC(=O)[C@@H](NC(=O)[C@H](CCCNC(=N)N)NC(=O)CNC(=O)[C@@H](NC(=O)[C@H](CC(C)C)NC(=O)[C@@H]1CCCN1C(=O)[C@H](CC(C)C)NC(=O)[C@@H](N)Cc1ccccc1)[C@@H](C)CC)C(C)C)C(=O)N[C@@H](C)C(N)=O [Temp-P1-3] (H-FLPLIGRVLSGIA-NH2),E. coli ATCC 25922 MIC,E. coli ATCC 25922 [1]; [5],512 µg/mL
same,MIC E. coli ATCC 25922,E. coli ATCC 25922 [1]; [6],512 µg/mL
same,E. coli ATCC 43827 MIC,E. coli ATCC 43827; [5],512 µg/mL
same,MIC E. coli ATCC 43927,E. coli ATCC 43827; [6],512 µg/mL
FFHHIFRGIVHVGKTIHRLVTG [Piscidin 1],Comment: toxicity,erythrocytes,"Active broad spetrum, toxic"
FFSLIPSLVGGLISAFK [Stigmurin],MIC E. coli ATCC 25922,E. coli ATCC 25922 [2],> 139 µM
same,MIC S. aureus ATCC 29212,S. aureus ATCC 29212,8.68 µM
FLRFIGSVIHGIGHLVHHIGVAL [Clavaspirin],MIC (moderately active AMP of MD validation set),[3],64 µg/mL
LKKLLKLLKPLLKL,Class (activity against E. coli ATCC 25922 in dedicated activity dataset),E. coli ATCC 25922 [4],1 (positive (active) examples are peptides selected from DBAASP with experimentally verified MIC≤ 101.5≃ 32 against E. coli ATCC 25922)
